Measurements taken from ChEMBL document CHEMBL1201862, “PubChem BioAssay data set” (2004).
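Tested at 5 concentrations; 48 h exposure; 96-well plates; endpoints linearly interpolated, else capped at highest concentration. The concentration for 50% growth inhibition is given as GI50.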 The source made the active and inactive calls. Cut-off read from the data, not from the text of the source: active = GI50 up to about 1.1 µM and inactive = higher.

Experiments:
Test in all cases: growth of human tumour cells (NCI), 48 h
786-0 = system: 786-0
A498 = system: A498
A549 = system: A549
ACHN = system: ACHN
BT-549 = system: BT-549
CAKI-1 = system: CAKI-1
CCRF-CEM = system: CCRF-CEM
COLO 205 = system: COLO 205
DU-145 = system: DU-145
EKVX = system: EKVX
HCC 2998 = system: HCC 2998
HCT-116 = system: HCT-116
HCT-15 = system: HCT-15
HL-60 = system: HL-60
HOP-62 = system: HOP-62
HOP-92 = system: HOP-92
HT-29 = system: HT-29
Hs-578T = system: Hs-578T
IGROV-1 = system: IGROV-1
K562 = system: K562
KM12 = system: KM12
LOX IMVI = system: LOX IMVI
M14 = system: M14
MCF7 = system: MCF7
MDA-MB-231 = system: MDA-MB-231
MDA-MB-435 = system: MDA-MB-435
MDA-N = system: MDA-N
MOLT-4 = system: MOLT-4
Malme-3M = system: Malme-3M
NCI-H226 = system: NCI-H226
NCI-H23 = system: NCI-H23
NCI-H460 = system: NCI-H460
NCI-H522 = system: NCI-H522
NCI/ADR-RES = system: NCI/ADR-RES
OVCAR-3 = system: OVCAR-3
OVCAR-4 = system: OVCAR-4
OVCAR-5 = system: OVCAR-5
OVCAR-8 = system: OVCAR-8
PC-3 = system: PC-3
RPMI-8226 = system: RPMI-8226
RXF 393 = system: RXF 393
SF-268 = system: SF-268
SF-295 = system: SF-295
SF-539 = system: SF-539
SK-MEL-28 = system: SK-MEL-28
SK-MEL-2 = system: SK-MEL-2
SK-MEL-5 = system: SK-MEL-5
SK-OV-3 = system: SK-OV-3
SN12C = system: SN12C
SNB-19 = system: SNB-19
SNB-75 = system: SNB-75
SR = system: SR
SW-620 = system: SW-620
T47D = system: T47D
TK-10 = system: TK-10
U-251 = system: U-251
UACC-257 = system: UACC-257
UACC-62 = system: UACC-62
UO-31 = system: UO-31

COc1ccc2nc3cc(Cl)ccc3c(NCCNC(=O)Cn3c(=O)n(C)c(=O)c4c3nc3c(c(=O)n(C)c(=O)n3C)[n+]4[O-])c2c1
GI50 (786-0): 43.1 µM (inactive) | GI50 (A498): > 60.4 µM (inactive) | GI50 (A549): 71.8 µM (inactive) | GI50 (ACHN): 36.8 µM (inactive) | GI50 (BT-549): 23 µM (inactive) | GI50 (CAKI-1): > 80 µM (inactive) | GI50 (CCRF-CEM): 50 µM (inactive) | GI50 (COLO 205): > 67.1 µM (inactive) | GI50 (DU-145): > 84.3 µM (inactive) | GI50 (EKVX): 34.7 µM (inactive) | GI50 (HCC 2998): 30.2 µM (inactive) | GI50 (HCT-116): 35.2 µM (inactive) | GI50 (HCT-15): > 100 µM | GI50 (HL-60): > 100 µM (inactive) | GI50 (HOP-62): 20.7 µM (inactive) | GI50 (HOP-92): 28.1 µM (inactive) | GI50 (HT-29): 24.2 µM (inactive) | GI50 (Hs-578T): 20.3 µM (inactive) | GI50 (IGROV-1): 19.1 µM (inactive) | GI50 (K562): 46.8 µM (inactive) | GI50 (KM12): 61.8 µM (inactive) | GI50 (LOX IMVI): 38.3 µM (inactive) | GI50 (M14): > 81.8 µM (inactive) | GI50 (MCF7): 33 µM (inactive) | GI50 (MDA-MB-231): 50.7 µM (inactive) | GI50 (MDA-MB-435): > 45.7 µM (inactive) | GI50 (MDA-N): 46.3 µM (inactive) | GI50 (MOLT-4): 22.9 µM (inactive) | GI50 (Malme-3M): 37.2 µM (inactive) | GI50 (NCI-H226): 35.6 µM (inactive) | GI50 (NCI-H23): 21.2 µM (inactive) | GI50 (NCI-H460): 44.7 µM (inactive) | GI50 (NCI-H522): 25.4 µM (inactive) | GI50 (NCI/ADR-RES): 38.8 µM (inactive) | GI50 (OVCAR-3): 39.5 µM (inactive) | GI50 (OVCAR-4): > 64.7 µM (inactive) | GI50 (OVCAR-5): > 72.8 µM (inactive) | GI50 (OVCAR-8): 2.47 µM (inactive) | GI50 (PC-3): 38.4 µM (inactive) | GI50 (RPMI-8226): > 80.9 µM (inactive) | GI50 (RXF 393): 42.1 µM (inactive) | GI50 (SF-268): 17.2 µM (inactive) | GI50 (SF-295): 44.8 µM (inactive) | GI50 (SF-539): 23.7 µM (inactive) | GI50 (SK-MEL-28): > 31.6 µM (inactive) | GI50 (SK-MEL-2): 35.2 µM (inactive) | GI50 (SK-MEL-5): 58.2 µM (inactive) | GI50 (SK-OV-3): 32.1 µM (inactive) | GI50 (SN12C): 36.7 µM (inactive) | GI50 (SNB-19): 23.9 µM (inactive) | GI50 (SNB-75): 33.9 µM (inactive) | GI50 (SR): 18.5 µM (inactive) | GI50 (SW-620): 34.2 µM (inactive) | GI50 (T47D): 35.6 µM (inactive) | GI50 (TK-10): 29 µM (inactive) | GI50 (U-251): 21 µM (inactive) | GI50 (UACC-257): 32.7 µM (inactive) | GI50 (UACC-62): > 38.3 µM (inactive) | GI50 (UO-31): > 100 µM (inactive)

Cc1sc(/N=C/c2c[nH]c3ccccc23)c(C#N)c1C
GI50 (786-0): 27.4 µM (inactive) | GI50 (A498): 28.7 µM (inactive) | GI50 (A549): 65 µM (inactive) | GI50 (ACHN): 29.6 µM (inactive) | GI50 (BT-549): 42.1 µM (inactive) | GI50 (CAKI-1): 56.2 µM (inactive) | GI50 (CCRF-CEM): 15.3 µM (inactive) | GI50 (COLO 205): > 100 µM (inactive) | GI50 (DU-145): 55.6 µM (inactive) | GI50 (EKVX): 67.9 µM (inactive) | GI50 (HCC 2998): 14.9 µM (inactive) | GI50 (HCT-116): 23.4 µM (inactive) | GI50 (HCT-15): 24 µM | GI50 (HL-60): 21.2 µM (inactive) | GI50 (HOP-62): 34.2 µM (inactive) | GI50 (HOP-92): 45.7 µM (inactive) | GI50 (HT-29): 6.89 µM (inactive) | GI50 (Hs-578T): 58.1 µM (inactive) | GI50 (IGROV-1): 21.7 µM (inactive) | GI50 (K562): 16.3 µM (inactive) | GI50 (KM12): 13.7 µM (inactive) | GI50 (LOX IMVI): 34.6 µM (inactive) | GI50 (M14): 22 µM (inactive) | GI50 (MCF7): 27.7 µM (inactive) | GI50 (MDA-MB-231): 36.4 µM (inactive) | GI50 (MDA-MB-435): 32.3 µM (inactive) | GI50 (MDA-N): 53.7 µM (inactive) | GI50 (MOLT-4): 23 µM (inactive) | GI50 (Malme-3M): 25.9 µM (inactive) | GI50 (NCI-H226): 30.5 µM (inactive) | GI50 (NCI-H23): 54.1 µM (inactive) | GI50 (NCI-H460): 33.1 µM (inactive) | GI50 (NCI-H522): 27.9 µM (inactive) | GI50 (NCI/ADR-RES): 74.6 µM (inactive) | GI50 (OVCAR-3): 11.2 µM (inactive) | GI50 (OVCAR-4): 35.2 µM (inactive) | GI50 (OVCAR-5): > 100 µM (inactive) | GI50 (OVCAR-8): 45.5 µM (inactive) | GI50 (PC-3): 45.7 µM (inactive) | GI50 (RPMI-8226): 19.7 µM (inactive) | GI50 (RXF 393): 22.3 µM (inactive) | GI50 (SF-268): 85.3 µM (inactive) | GI50 (SF-295): 28.3 µM (inactive) | GI50 (SF-539): 40.4 µM (inactive) | GI50 (SK-MEL-28): > 100 µM (inactive) | GI50 (SK-MEL-2): 30.5 µM (inactive) | GI50 (SK-MEL-5): 18.4 µM (inactive) | GI50 (SK-OV-3): 88.7 µM (inactive) | GI50 (SN12C): 74.3 µM (inactive) | GI50 (SNB-19): 61.2 µM (inactive) | GI50 (SNB-75): 37.1 µM (inactive) | GI50 (SR): 18.2 µM (inactive) | GI50 (SW-620): 39.7 µM (inactive) | GI50 (T47D): 18.6 µM (inactive) | GI50 (TK-10): 20 µM (inactive) | GI50 (U-251): 21.5 µM (inactive) | GI50 (UACC-257): 44.6 µM (inactive) | GI50 (UACC-62): 20.7 µM (inactive) | GI50 (UO-31): 48 µM (inactive)

CCOC(=O)/C=C(\C(=O)OCC)n1cnc2c(N)ncnc21
GI50 (786-0): 2.77 µM (inactive) | GI50 (A498): 13.2 µM (inactive) | GI50 (A549): 17.1 µM (inactive) | GI50 (ACHN): 6.67 µM (inactive) | GI50 (BT-549): 12.1 µM (inactive) | GI50 (CAKI-1): 1.4 µM (inactive) | GI50 (CCRF-CEM): 1.63 µM (inactive) | GI50 (COLO 205): 1.99 µM (inactive) | GI50 (DU-145): 15.6 µM (inactive) | GI50 (EKVX): 8.2 µM (inactive) | GI50 (HCC 2998): 16 µM (inactive) | GI50 (HCT-116): 3.11 µM (inactive) | GI50 (HCT-15): 3.08 µM | GI50 (HL-60): 0.931 µM (active) | GI50 (HOP-62): 22.6 µM (inactive) | GI50 (HOP-92): 2.28 µM (inactive) | GI50 (HT-29): 6.68 µM (inactive) | GI50 (Hs-578T): 19.7 µM (inactive) | GI50 (IGROV-1): 10.8 µM (inactive) | GI50 (K562): 1.99 µM (inactive) | GI50 (KM12): 14.8 µM (inactive) | GI50 (LOX IMVI): 3.43 µM (inactive) | GI50 (M14): 10.4 µM (inactive) | GI50 (MCF7): 2.64 µM (inactive) | GI50 (MDA-MB-231): 7.31 µM (inactive) | GI50 (MDA-MB-435): 11.8 µM (inactive) | GI50 (MDA-N): 14.6 µM (inactive) | GI50 (MOLT-4): 2.44 µM (inactive) | GI50 (Malme-3M): 4.29 µM (inactive) | GI50 (NCI-H226): 5.97 µM (inactive) | GI50 (NCI-H23): 13.7 µM (inactive) | GI50 (NCI-H460): 17.9 µM (inactive) | GI50 (NCI-H522): 1.6 µM (inactive) | GI50 (NCI/ADR-RES): 17.2 µM (inactive) | GI50 (OVCAR-3): 8.41 µM (inactive) | GI50 (OVCAR-4): 15.2 µM (inactive) | GI50 (OVCAR-5): 5.83 µM (inactive) | GI50 (OVCAR-8): 7.45 µM (inactive) | GI50 (PC-3): 13.3 µM (inactive) | GI50 (RPMI-8226): 2.02 µM (inactive) | GI50 (RXF 393): 12.6 µM (inactive) | GI50 (SF-268): 15.3 µM (inactive) | GI50 (SF-295): 16.8 µM (inactive) | GI50 (SF-539): 14.1 µM (inactive) | GI50 (SK-MEL-28): 13.6 µM (inactive) | GI50 (SK-MEL-2): 16.8 µM (inactive) | GI50 (SK-MEL-5): 14.7 µM (inactive) | GI50 (SK-OV-3): 17.7 µM (inactive) | GI50 (SN12C): 5.19 µM (inactive) | GI50 (SNB-19): 16.1 µM (inactive) | GI50 (SNB-75): 12.4 µM (inactive) | GI50 (SR): 1.91 µM (inactive) | GI50 (SW-620): 2.74 µM (inactive) | GI50 (T47D): 2.92 µM (inactive) | GI50 (TK-10): 5.02 µM (inactive) | GI50 (U-251): 7.94 µM (inactive) | GI50 (UACC-257): 14.5 µM (inactive) | GI50 (UACC-62): 10.7 µM (inactive) | GI50 (UO-31): 16.5 µM (inactive)
